System: HepaRG
Assay: LDH release cytotoxicity, % of total lysis control; higher = more cytotoxic
Settings: 48 h
Outline: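 Eight-point half-log series of test chemicals, the highest at 100 µM, were given in duplicate for 48 h to single-lot HepaRG cells on collagen I-coated 96-well plates in serum-free induction medium with 0.5% DMSO. A Tecan Safire read resorufin fluorescence from CytoTox-ONE as a measure of LDH in 50 µL spent medium, with 0.1% Triton X in total lysis wells. Percent cytotoxicity was normalized to on-plate vehicle and total lysis controls and averaged over the duplicates.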

CCOc1cc(C(C)(C)C)ccc1C1COC(c2c(F)cccc2F)=N1 (centres undefined) [Etoxazole]
Settings	LDH release cytotoxicity [%]
0.020871 µM	-3.18
0.066 µM	-1.79
0.20871 µM	-2.56
0.66 µM	-3.05
2.0871 µM	-2.64
6.6 µM	-2.88
20.871 µM	-2.37
66 µM	5.91

Cc1nn(-c2cc(NS(C)(=O)=O)c(Cl)cc2Cl)c(=O)n1C(F)F [Sulfentrazone]
Settings	LDH release cytotoxicity [%]
0.03162 µM	-1.66
0.1 µM	-1.99
0.3162278 µM	-2.52
1 µM	-2.37
3.16228 µM	-0.982
10 µM	-1.17
31.6228 µM	-1.23
100 µM	0.713

OCCOCCO [Diethylene glycol]
Settings	LDH release cytotoxicity [%]
0.03162 µM	-0.757
0.1 µM	-1.02
0.3162278 µM	-1.03
1 µM	-0.601
3.16228 µM	-1.16
10 µM	-0.563
31.6228 µM	-0.731
100 µM	0.422

CN1COCN(Cc2cnc(Cl)s2)C1=N[N+](=O)[O-] [Thiamethoxam]
Settings	LDH release cytotoxicity [%]
0.03162 µM	-0.296
0.1 µM	-1.13
0.3162278 µM	-0.0609
1 µM	-1.83
3.16228 µM	-1.49
10 µM	0.119
31.6228 µM	-1.01
100 µM	0.102

NS(=O)(=O)C(F)(F)C(F)(F)C(F)(F)C(F)(F)C(F)(F)C(F)(F)C(F)(F)C(F)(F)F [Perfluorooctanesulfonamide]
Settings	LDH release cytotoxicity [%]
0.03162 µM	-1.99
0.1 µM	-2.06
0.3162278 µM	-2.69
1 µM	-1.57
3.16228 µM	-1.2
10 µM	-4.2
31.6228 µM	41.1
100 µM	86.8

OC(CCl)CCl [1,3-Dichloro-2-propanol]
Settings	LDH release cytotoxicity [%]
0.03162 µM	-0.194
0.1 µM	-0.771
0.3162278 µM	-1.03
1 µM	-0.871
3.16228 µM	-0.223
10 µM	-0.32
31.6228 µM	0.161
100 µM	-0.702

Cc1ccc(O)c(C)c1 [2,4-Dimethylphenol]
Settings	LDH release cytotoxicity [%]
0.03162 µM	-0.236
0.1 µM	-1.06
0.3162278 µM	-0.554
1 µM	-0.084
3.16228 µM	0.0582
10 µM	-0.172
31.6228 µM	-0.59
100 µM	-0.251

CC(C)=CC1C(C(=O)OCc2coc(Cc3ccccc3)c2)C1(C)C (centres undefined) [Resmethrin]
Settings	LDH release cytotoxicity [%]
0.03162 µM	-0.985
0.1 µM	-0.737
0.3162278 µM	-0.651
1 µM	-1.31
3.16228 µM	-0.881
10 µM	-0.19
31.6228 µM	-0.451
100 µM	0.209

CCCCCc1ccc(N)cc1 [4-Pentylaniline]
Settings	LDH release cytotoxicity [%]
0.03162 µM	-0.0179
0.1 µM	-1.43
0.3162278 µM	-0.689
1 µM	-0.976
3.16228 µM	-0.886
10 µM	-0.634
31.6228 µM	-0.209
100 µM	1.34

Nc1cc(Cl)cc(C(=O)O)c1Cl [Chloramben]
Settings	LDH release cytotoxicity [%]
0.03162 µM	0.283
0.1 µM	-1.57
0.3162278 µM	-0.351
1 µM	-0.882
3.16228 µM	-1.46
10 µM	-0.217
31.6228 µM	-0.618
100 µM	0.291

CCc1nc(N)nc(N)c1-c1ccc(Cl)cc1 [Pyrimethamine]
Settings	LDH release cytotoxicity [%]
0.03162 µM	-0.622
0.1 µM	-0.806
0.3162278 µM	0.238
1 µM	0.679
3.16228 µM	1.89
10 µM	4.04
31.6228 µM	2.08
100 µM	14.2

CCCCCCCCCC[N+](C)(C)CCCCCCCCCC [Didecyldimethylammonium chloride]
Settings	LDH release cytotoxicity [%]
0.0317809 µM	-1.08
0.1005 µM	-0.913
0.317809 µM	-0.501
1.005 µM	-2.08
3.17809 µM	-0.414
10.05 µM	0.276
31.7809 µM	0.202
100.5 µM	1.33

CC1=C(C(=O)Nc2ccccc2)SCCO1 [Carboxin]
Settings	LDH release cytotoxicity [%]
0.03162 µM	-0.0118
0.1 µM	-0.836
0.3162278 µM	-1.79
1 µM	-0.232
3.16228 µM	-1.1
10 µM	-0.0461
31.6228 µM	3.07
100 µM	8.14

OCCNCCO [Diethanolamine]
Settings	LDH release cytotoxicity [%]
0.031623 µM	-1.15
0.1 µM	-1.45
0.316228 µM	-1.83
1 µM	-2.4
3.16228 µM	-2.41
10 µM	-1.71
31.6228 µM	-0.726
100 µM	0.309

CC(COc1ccc(Oc2ccccc2)cc1)Oc1ccccn1 (centres undefined) [Pyriproxyfen]
Settings	LDH release cytotoxicity [%]
0.031623 µM	-1.46
0.1 µM	-2.74
0.316228 µM	-2.85
1 µM	-3
3.16228 µM	-3.01
10 µM	-2.89
31.6228 µM	-1.8
100 µM	1.18

OCCC(F)(F)C(F)(F)C(F)(F)C(F)(F)C(F)(F)C(F)(F)C(F)(F)C(F)(F)F [8:2 Fluorotelomer alcohol]
Settings	LDH release cytotoxicity [%]
0.031623 µM	-0.581
0.1 µM	-0.0838
0.316228 µM	-1.41
1 µM	-2.22
3.16228 µM	-2.23
10 µM	-1.35
31.6228 µM	-1.87
100 µM	0.405

CCCCSP(=O)(SCCCC)SCCCC [Tribufos]
Settings	LDH release cytotoxicity [%]
0.03162 µM	-1.39
0.1 µM	-0.774
0.3162278 µM	-1.31
1 µM	-1.25
3.16228 µM	-0.815
10 µM	-0.0795
31.6228 µM	-0.648
100 µM	0.564

O=C(O)CC(O)(CC(=O)O)C(=O)O [Citric acid]
Settings	LDH release cytotoxicity [%]
0.03162 µM	0.134
0.1 µM	-0.835
0.3162278 µM	-0.0952
1 µM	-1.29
3.16228 µM	-0.803
10 µM	0.951
31.6228 µM	0.893
100 µM	0.958

Source: the supplement of paper PMC7840683
